Test results as given in patent publication US5776886A, “Intravaginal preparation containing physiologically active peptide” (Teikoku Seiyaku Kabushiki Kaisha, priority 1993, dated 1998).

What was measured:
Assay type in all cases: in vivo, Wistar rats
[1] = tested on: calcium level in the serum; assay: Experiment 6: effects of the concentration of organic acid on serum calcium reduction; details: for Reduction rate (%) of calcium level in the serum: pH 3.5, + S-970, intravaginal suppository 20 μg, rats
Experimental: (§1) An intravaginal suppository was administered into the rat's vagina, and the blood was collected periodically (2, 4 and 6 hours after administration of the test preparation).
(§2) The serum was separated, and the calcium level in the serum was determined by using a kit for determination of calcium (Calcium C Test Wako; manufactured by Wako Pure Chemical Industries, Ltd.) (n=3).
(§3) In the same manner as in Experiment 1, each intravaginal suppository was administered to the rat's vagina, and the blood was collected periodically (2, 4 and 6 hours after administration of intravaginal suppository), and the calcium level in the serum thereof was determined (n=3).

[2] = tested on: calcium level in the serum; assay: Experiment 1: serum calcium reduction after human calcitonin intravaginal suppository, sucrose fatty acid ester plus citric acid vs each alone; details: for Reduction rate (%) of calcium level in the serum: intravaginal suppository 20 μg, ovariectomized rats
Experimental: To the mixture was added a commercially available base for intravaginal preparation; Witepsol S-55 (which is prepared from Witepsol E-85 so as to give a final intravaginal suppository having a melting point of 36.5° C., manufactured by Hils Co., Ltd., former Diamit Novel Co., Ltd) which was homogenized by previously warming and stirring thereof so as to give an intravaginal suppository with the total weight of 5.00 g. […] The mixture was poured into a tube (inside diameter: about 3 mm) made of teflon at about 40° C., cooled to solidify, and taken out from the tube. The solidified mixture was cut into pieces (weight: 50 mg) to give intravaginal suppositories for rats containing human calcitonin (20 μg/each). There were also obtained two kinds of intravaginal suppositories prepared by adding citric acid (50 mg) only, and prepared by adding a sucrose fatty acid ester (100 mg) only, likewise. There were obtained intravaginal suppositories containing only human calcitonin without citric acid nor a sucrose fatty acid ester, likewise, which are used as control.
as §1, §2

[3] = tested on: calcium level in the serum; assay: Experiment 2: effects of various bases on serum calcium reduction; details: for Reduction rate (%) of calcium level in the serum: S-970 + citric acid, intravaginal suppository 20 μg, rats
Experimental: as §1, §2
In the same manner as in Experiment 1, each intravaginal suppository was administered to the rat's vagina, and the blood was collected periodically (2, 4 and 6 hours after administration of intravaginal suppository), and the calcium level in the serum thereof was determined (n=4).

[4] = tested on: calcium level in the serum; assay: Experiment 4: effects of the concentration of sucrose fatty acid ester on serum calcium reduction
Experimental: as §1, §2
Human calcitonin (2 mg) was precisely measured, and thereto were added citric acid (100 mg) and Ryoto-Sugar Ester S-970 (50 mg, 100 mg or 400 mg), and the mixture was mixed well.
In the same manner as in Experiment 1, each intravaginal suppository was administered to the rat's vagina, and the blood was collected periodically (2 and 4 hours after administration of intravaginal suppository), and the calcium level in the serum thereof was determined (n=3).

[5] = tested on: calcium level in the serum; assay: Experiment 5: sucrose fatty acid ester with various organic acids, serum calcium reduction; details: for Reduction rate (%) of calcium level in the serum: intravaginal suppository 20 μg, rats
Experimental: as §1, §2
In the same manner as in Experiment 1, each intravaginal suppository was administered to the rat's vagina, and the blood was collected periodically (2, 4 and 6 hours after administration of intravaginal suppository), and the calcium level in the serum thereof was determined (n=5).

[6] = tested on: calcium level in the serum; assay: Experiment 7: effects of pH of the solution in the suppository on serum calcium reduction; details: for Reduction rate (%) of calcium level in the serum: citric acid + S-970, intravaginal 20 μg, rats
Experimental: as §1, §2, §3

Human calcitonin
calcium level in the blood ([1]; citric acid 1, 2, 5 or 10 w/w % with sucrose fatty acid ester): reduced at any concentration of citric acid to be used
Reduction rate (%) of calcium level in the serum ([1]; organic acid (citric acid) 1 w/w %, 2 hr): 14.6%
Reduction rate (%) of calcium level in the serum ([1]; organic acid (citric acid) 1 w/w %, 4 hr): 15.7%
Reduction rate (%) of calcium level in the serum ([1]; organic acid (citric acid) 1 w/w %, 6 hr): 9.2%
Reduction rate (%) of calcium level in the serum ([1]; organic acid (citric acid) 2 w/w %, 2 hr): 15.3%
Reduction rate (%) of calcium level in the serum ([1]; organic acid (citric acid) 2 w/w %, 4 hr): 18.7%
Reduction rate (%) of calcium level in the serum ([1]; organic acid (citric acid) 2 w/w %, 6 hr): 8.2%
Reduction rate (%) of calcium level in the serum ([1]; organic acid (citric acid) 5 w/w %, 2 hr): 17.9%
Reduction rate (%) of calcium level in the serum ([1]; organic acid (citric acid) 5 w/w %, 4 hr): 19.4%
Reduction rate (%) of calcium level in the serum ([1]; organic acid (citric acid) 5 w/w %, 6 hr): 7.5%
Reduction rate (%) of calcium level in the serum ([1]; organic acid (citric acid) 10 w/w %, 2 hr): 18.4%
Reduction rate (%) of calcium level in the serum ([1]; organic acid (citric acid) 10 w/w %, 4 hr): 19.0%
Reduction rate (%) of calcium level in the serum ([1]; organic acid (citric acid) 10 w/w %, 6 hr): 5.0%
Reduction rate (%) of calcium level in the serum ([2]; Control: only human calcitonin, no citric acid nor sucrose fatty acid ester, 2 hr): 2.6%
Reduction rate (%) of calcium level in the serum ([2]; Control: only human calcitonin, no citric acid nor sucrose fatty acid ester, 4 hr): 2.2%
Reduction rate (%) of calcium level in the serum ([2]; Control: only human calcitonin, no citric acid nor sucrose fatty acid ester, 6 hr): 3.8%
Reduction rate (%) of calcium level in the serum ([2]; added: citric acid only, 2 hr): 9.5%
Reduction rate (%) of calcium level in the serum ([2]; added: citric acid only, 4 hr): 8.0%
Reduction rate (%) of calcium level in the serum ([2]; added: citric acid only, 6 hr): 5.7%
Reduction rate (%) of calcium level in the serum ([2]; added: sucrose fatty acid ester (S-970) and citric acid, base Witepsol S-55, 2 hr): 14.9%
Reduction rate (%) of calcium level in the serum ([2]; added: sucrose fatty acid ester (S-970) and citric acid, base Witepsol S-55, 4 hr): 19.5%
Reduction rate (%) of calcium level in the serum ([2]; added: sucrose fatty acid ester (S-970) and citric acid, base Witepsol S-55, 6 hr): 11.1%
Reduction rate (%) of calcium level in the serum ([2]; added: sucrose fatty acid ester (S-970) only, 2 hr): 10.6%
Reduction rate (%) of calcium level in the serum ([2]; added: sucrose fatty acid ester (S-970) only, 4 hr): 10.5%
Reduction rate (%) of calcium level in the serum ([2]; added: sucrose fatty acid ester (S-970) only, 6 hr): 10.7%
calcitonin-absorption promotion effects, on the basis of the reduction rate of the calcium level in the serum ([2]; combination of sucrose fatty acid ester and citric acid compared with either only): far superior
Reduction rate (%) of calcium level in the serum ([3]; base Cacao butter, 2 hr): 12.5%
Reduction rate (%) of calcium level in the serum ([3]; base Cacao butter, 4 hr): 10.7%
Reduction rate (%) of calcium level in the serum ([3]; base Cacao butter, 6 hr): 8.3%
Reduction rate (%) of calcium level in the serum ([3]; base Pharmasol B-105, 2 hr): 13.4%
Reduction rate (%) of calcium level in the serum ([3]; base Pharmasol B-105, 4 hr): 14.8%
Reduction rate (%) of calcium level in the serum ([3]; base Pharmasol B-105, 6 hr): 10.6%
Reduction rate (%) of calcium level in the serum ([3]; base Witepsol H-15, 2 hr): 16.8%
Reduction rate (%) of calcium level in the serum ([3]; base Witepsol H-15, 4 hr): 17.7%
Reduction rate (%) of calcium level in the serum ([3]; base Witepsol H-15, 6 hr): 10.4%
Reduction rate (%) of calcium level in the serum ([3]; base Witepsol S-55, 2 hr): 16.5%
Reduction rate (%) of calcium level in the serum ([3]; base Witepsol S-55, 4 hr): 22.5%
Reduction rate (%) of calcium level in the serum ([3]; base Witepsol S-55, 6 hr): 13.0%
Reduction rate (%) of calcium level in the serum ([3]; base Witepsol W-35, 2 hr): 6.6%
Reduction rate (%) of calcium level in the serum ([3]; base Witepsol W-35, 4 hr): 20.4%
Reduction rate (%) of calcium level in the serum ([3]; base Witepsol W-35, 6 hr): 13.2%
promotion effect on absorption of calcitonin ([3]; combination of sucrose fatty acid ester and citric acid, five bases): extremely excellent promotion effect on absorption of calcitonin regardless of any base to be used
calcium level in the blood ([4]; sucrose fatty acid ester 1, 2 or 8 w/w % with citric acid): reduced at any concentration of the sucrose fatty acid ester to be used
Reduction rate (%) of calcium level in the serum ([4]; sucrose fatty acid ester (S-970) 1 w/w %, citric acid 100 mg per 5.00 g, intravaginal suppository 20 μg, rats, 2 hr): 10.8%
Reduction rate (%) of calcium level in the serum ([5]; organic acid: citric acid (pH 4) + Ryoto-Sugar Ester R-970, 2 hr): 11.4%
Reduction rate (%) of calcium level in the serum ([5]; organic acid: citric acid (pH 4) + Ryoto-Sugar Ester R-970, 4 hr): 19.6%
Reduction rate (%) of calcium level in the serum ([5]; organic acid: citric acid (pH 4) + Ryoto-Sugar Ester R-970, 6 hr): 8.4%
Reduction rate (%) of calcium level in the serum ([5]; organic acid: lactic acid (pH 4) + Ryoto-Sugar Ester R-970, 2 hr): 17.0%
Reduction rate (%) of calcium level in the serum ([5]; organic acid: lactic acid (pH 4) + Ryoto-Sugar Ester R-970, 4 hr): 10.6%
Reduction rate (%) of calcium level in the serum ([5]; organic acid: lactic acid (pH 4) + Ryoto-Sugar Ester R-970, 6 hr): 5.4%
Reduction rate (%) of calcium level in the serum ([5]; organic acid: malic acid (pH 4) + Ryoto-Sugar Ester R-970, 2 hr): 18.6%
Reduction rate (%) of calcium level in the serum ([5]; organic acid: malic acid (pH 4) + Ryoto-Sugar Ester R-970, 4 hr): 13.0%
Reduction rate (%) of calcium level in the serum ([5]; organic acid: malic acid (pH 4) + Ryoto-Sugar Ester R-970, 6 hr): 7.0%
Reduction rate (%) of calcium level in the serum ([5]; organic acid: tartaric acid (pH 4) + Ryoto-Sugar Ester R-970, 2 hr): 12.2%
Reduction rate (%) of calcium level in the serum ([5]; organic acid: tartaric acid (pH 4) + Ryoto-Sugar Ester R-970, 4 hr): 8.0%
Reduction rate (%) of calcium level in the serum ([5]; organic acid: tartaric acid (pH 4) + Ryoto-Sugar Ester R-970, 6 hr): 3.4%
calcium level ([5]; sucrose fatty acid ester with citric, tartaric, lactic or malic acid): significantly reduced regardless of any organic acid to be used
promotion effect of a combination of a sucrose fatty acid ester and citric acid ([6]; pH of the solution 3.0 to 5.5): observed in the cases of pH 3.0 to 5.5, and the effects thereof were not significantly different in the cases of pH 3.0 to 4.5
Reduction rate (%) of calcium level in the serum ([6]; pH of the solution in suppository 3.0, 2 hr): 11.0%
Reduction rate (%) of calcium level in the serum ([6]; pH of the solution in suppository 3.0, 4 hr): 22.0%
Reduction rate (%) of calcium level in the serum ([6]; pH of the solution in suppository 3.0, 6 hr): 8.7%
Reduction rate (%) of calcium level in the serum ([6]; pH of the solution in suppository 3.5, 2 hr): 9.4%
Reduction rate (%) of calcium level in the serum ([6]; pH of the solution in suppository 3.5, 4 hr): 19.8%
Reduction rate (%) of calcium level in the serum ([6]; pH of the solution in suppository 3.5, 6 hr): 8.8%
Reduction rate (%) of calcium level in the serum ([6]; pH of the solution in suppository 4.0, 2 hr): 9.4%
Reduction rate (%) of calcium level in the serum ([6]; pH of the solution in suppository 4.0, 4 hr): 20.2%
Reduction rate (%) of calcium level in the serum ([6]; pH of the solution in suppository 4.0, 6 hr): 10.2%
Reduction rate (%) of calcium level in the serum ([6]; pH of the solution in suppository 4.5, 2 hr): 9.5%
Reduction rate (%) of calcium level in the serum ([6]; pH of the solution in suppository 4.5, 4 hr): 22.8%
Reduction rate (%) of calcium level in the serum ([6]; pH of the solution in suppository 4.5, 6 hr): 9.1%
Reduction rate (%) of calcium level in the serum ([6]; pH of the solution in suppository 5.0, 2 hr): 10.2%
Reduction rate (%) of calcium level in the serum ([6]; pH of the solution in suppository 5.0, 4 hr): 11.4%
Reduction rate (%) of calcium level in the serum ([6]; pH of the solution in suppository 5.0, 6 hr): 2.7%
Reduction rate (%) of calcium level in the serum ([6]; pH of the solution in suppository 5.5, 2 hr): 8.1%
Reduction rate (%) of calcium level in the serum ([6]; pH of the solution in suppository 5.5, 4 hr): 13.2%
Reduction rate (%) of calcium level in the serum ([6]; pH of the solution in suppository 5.5, 6 hr): 4.3%
